The source made the active and inactive calls. No cut-off for these calls is given here.
System: Cladosporium cucumerinum
Assay: Antifungal activity against Cladosporium cucumerinum by TLC biautography assay
Format: functional, organism-based

For `CC(C)=CCc1c(O)cc(O)c2c(=O)c(-c3ccc4c(c3)C=CC(C)(C)O4)coc12`, the Activity was “inactive”.

With `CC1(C)Oc2ccc(-c3coc4cc(O)cc(O)c4c3=O)cc2C[C@@H]1O` the Activity was “inactive”.

For `C/C(=C\Cc1cc(-c2coc3cc(O)cc(O)c3c2=O)ccc1O)CO`, the Activity was “inactive”.

`COc1ccc([C@@H]2COc3cc(O)c(CC=C(C)C)c(O)c3C2=O)cc1CC=C(C)C` was tested, and the Activity was “inactive”.

For `CC(C)=CCc1c(O)cc2occ(-c3ccc4c(c3)C=CC(C)(C)O4)c(=O)c2c1O`, the Activity was “inactive”.

`COc1cc(O)c(CC=C(C)C)cc1-c1coc2cc(O)cc(O)c2c1=O` was tested, and the Activity was “inactive”.

For `CC(C)=CCc1cc(-c2coc3cc(O)cc(O)c3c2=O)cc2c1OC(C)(C)C(O)C2` (configuration not stated), the Activity was “inactive”.
